From patent US10774083B2, “Heterocyclic amide compound” (TAKEDA PHARMACEUTICAL COMPANY LIMITED, priority 2016, dated 2020) come the findings set out here.

For the assay, the target named is T1, human PRS protein (His-Avi-hEPRS (998-1512)) (Homo sapiens, UniProt P07814).
T1 construct: to construct His-Avi-hEPRS (998-1512) expression plasmid; His tag (N); Avi tag (N); TEV cleavage site (ENLYFQG, then S; inferred from the forward primer hEPRS-TEV-NheF) (N); made in house; host or cells: E. coli BL21(DE3)
T1 sequence (P07814 998-1512 limits assumed): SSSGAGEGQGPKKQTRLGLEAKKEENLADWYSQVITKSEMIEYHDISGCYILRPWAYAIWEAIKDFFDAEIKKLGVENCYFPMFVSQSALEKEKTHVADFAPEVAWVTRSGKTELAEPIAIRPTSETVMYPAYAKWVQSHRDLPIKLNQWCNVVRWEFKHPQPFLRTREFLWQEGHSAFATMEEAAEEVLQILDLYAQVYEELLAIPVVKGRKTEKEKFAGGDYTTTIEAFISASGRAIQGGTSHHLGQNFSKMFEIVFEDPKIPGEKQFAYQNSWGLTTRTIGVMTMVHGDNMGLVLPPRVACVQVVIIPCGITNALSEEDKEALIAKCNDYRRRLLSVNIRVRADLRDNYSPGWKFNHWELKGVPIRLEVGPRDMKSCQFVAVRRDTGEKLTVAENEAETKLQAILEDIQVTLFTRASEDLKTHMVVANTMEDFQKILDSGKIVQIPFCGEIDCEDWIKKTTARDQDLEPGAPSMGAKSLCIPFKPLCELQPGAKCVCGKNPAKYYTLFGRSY
Put plainly: PRS inhibitory activity ([32P]pyrophosphate exchange enzyme assay). Format: biochemical. The conditions noted are these: 300 nM test compound; read-out: inhibitory rate (%) of PRS. On the procedure:
The PRS inhibitory activity of the compounds of the present invention was evaluated by the following method.
An expression plasmid of Catalytic Domain of human EPRS was obtained by PCR using human skeletal muscle cDNA Library (Takara Bio Inc.) as a template and 2 kinds of Primers 5′-[…]-3′ (hEPRS-TEV-NheF) (SEQ ID NO: 1) and 5′-[…]-3′ (hEPRS-St-Not-R) (SEQ ID NO: 2). PCR was performed using PrimeStar GXL DNA Polymerase (Takara Bio Inc.) and included (1) 98° C., 1 min, (2) 35 cycles of 98° C., 10 sec, 65° C., 10 sec, 72° C., 1 min, and (3) reaction at 72° C., 1 min. This was cleaved with Nhe I and Not I (Takara Bio Inc.) and inserted using Ligation High (TOYOBO CO., LTD.) into the Nhe I/Not I site of pET21a (Novagen) with His-Avitag inserted thereinto. This was introduced into ECOS JM109 (NIPPON GENE CO., LTD.) to construct His-Avi-hEPRS (998-1512) expression plasmid.
Recombinant human PRS protein was prepared by transforming the His-Avi-hEPRS (998-1512) expression plasmid prepared above into ECOS Competent E. coli BL21(DE3) (NIPPON GENE CO., LTD.). Escherichia coli obtained by transformation was inoculated into 300 mL of LB medium (1% peptone, 0.5% yeast extract, 0.5% sodium chloride, 0.01% ampicillin) and cultured at 30° C. for 16 hr. The obtained culture medium was transferred into a jar culture tank charged with 6 L of the main fermentation medium (0.3% potassium dihydrogen phosphate, 0.6% disodium hydrogen phosphate, 0.1% ammonium chloride, 0.05% sodium chloride, 0.024% magnesium sulfate, 0.02% NEWPOL LB-625, 1.5% sorbitol, 1.5% casamino acid, 0.5% yeast extract, 0.01% ampicillin) and culturing was started at 37° C., quantity of airflow 5 L/min, stirring rotating speed 400 rpm. At the time point when the turbidity of the culture medium reached about 550 Klett units, the culture temperature was lowered to 16° C., isopropyl-β-D-thiogalactopyranoside (IPTG) was added to the final concentration 0.1 mM, and culturing was performed for another 16 hr to induce expression of human PRS. After completion of culturing, the culture medium was centrifuged at 5,000 rpm for 10 min. The obtained human PRS expressing Escherichia coli was suspended in a buffer containing 50 mM Tris-HCl (pH 8.0), 150 mM NaCl, 1 mM DTT, 5 U/ml Benzonase, 20 mM Imidazole and sonicated using Sonifier (BRANSON). The homogenate was centrifuged (33,000×G, 60 min, Beckman Coulter), the obtained supernatant was subjected to adsorption by passage through Ni-NTA Superflow (QIAGEN) column equilibrated in advance with 50 mM Tris-HCl (pH 8.0), 300 mM NaCl, 1 mM DTT, and elution was performed with a buffer containing 50 mM Tris-HCl (pH 8.0), 300 mM NaCl, 1 mM DTT, 250 mM Imidazole. Furthermore, gel filtration was performed using Superdex200 pg column equilibrated in advance with a buffer containing 50 mM Tris-HCl (pH 8.0), 150 mM NaCl, 1 mM DTT, 10% glycerol to give purified human PRS protein. The protein concentration was measured using BCA Protein Assay Kit (PIERCE) and BSA as the standard.
A test compound was dissolved in 5 μL of an assay buffer (50 mM Tris-HCl (pH 7.5), 20 mM KCl, 1 mM DTT, 0.01% Tween 20) and incubated for 60 min with 5 μL of 40 nM human PRS protein dissolved in the assay buffer containing 40 mM MgCl2. An enzyme reaction of the human PRS protein was started by adding 10 μL of a substrate solution containing 300 μM ATP, 160 μM L-Proline, 400 μM pyrophosphate, [^32P]pyrophosphate (PerkinElmer) prepared to 1 MBq/mL. After incubation at room temperature for 30 min, the reaction was discontinued by adding 50 μL of discontinuation/washing solution (1M HCl, 200 mM sodium pyrophosphate) to the reaction mixture. The reaction solution was transferred to a filter plate (Merck Millipore, Billerica, Mass.) previously added with 200 μL of charcoal solution (0.5% HCl solution containing 10% charcoal (w/v)). […]

Take `Cn1cc(-c2cc(F)cc(CNC(=O)c3cc(N4CC[C@@](C#N)(C5CC5)C4=O)ccn3)c2)cn1` [Example 149, 4-((3S)-3-cyano-3-cyclopropyl-2-oxopyrrolidin-1-yl)-N-(3-fluoro-5-(1-methyl-1H-pyrazol-4-yl)benzyl)pyridine-2-carboxamide]: the inhibition at 0.3 µM is 95%.
Turning to `CCc1cc(N2CC[C@@](C#N)(C3CC3)C2=O)cc(C(=O)NCc2cc(F)cc(-c3cnn(C)c3)c2)n1` [Example 219, 4-((3S)-3-cyano-3-cyclopropyl-2-oxopyrrolidin-1-yl)-6-ethyl-N-(3-fluoro-5-(1-methyl-1H-pyrazol-4-yl)benzyl)pyridine-2-carboxamide], the inhibition at 0.3 µM was found to be 94%.
Regarding `Cn1cc(-c2cc(F)cc(CNC(=O)c3nc(Cl)nc4nc(C5CCCC5)[nH]c34)c2)cn1` [Example 12, 2-chloro-8-cyclopentyl-N-(3-fluoro-5-(1-methyl-1H-pyrazol-4-yl)benzyl)-7H-purine-6-carboxamide], the inhibition at 0.3 µM came to 77%.
As to `O=C(NCc1cccc(-c2ccccc2)c1)c1nccc2nc(C3CCCC3)[nH]c12` [Example 83, N-(biphenyl-3-ylmethyl)-2-cyclopentyl-3H-imidazo[4,5-c]pyridine-4-carboxamide], the inhibition at 0.3 µM was 98%.
For `Cn1cc(-c2cc(F)cc(CNC(=O)c3ncnc4nc(C5CCS(=O)(=O)C5)[nH]c34)c2)cn1` (stereo not shown) [Example 28, 8-(1,1-dioxidotetrahydrothiophen-3-yl)-N-(3-fluoro-5-(1-methyl-1H-pyrazol-4-yl)benzyl)-7H-purine-6-carboxamide] the value was 101%.
With `Cn1c(C2CCCC2)nc2ccnc(C(=O)NCc3ccccc3Cl)c21` [Example 85, N-(2-chlorobenzyl)-2-cyclopentyl-3-methyl-3H-imidazo[4,5-c]pyridine-4-carboxamide] the figure was 97%; with `Cn1cc(-c2cc(F)cc(CNC(=O)c3nccc4nc(C5CCCC5)n(C5CC5)c34)c2)cn1` [Example 108, 2-cyclopentyl-3-cyclopropyl-N-(3-fluoro-5-(1-methyl-1H-pyrazol-4-yl)benzyl)-3H-imidazo[4,5-c]pyridine-4-carboxamide], 102%; with `Cn1cc(-c2cc(F)cc(CNC(=O)c3nccc4nc(C5CCCC5)n(Cc5ccccc5)c34)c2)cn1` [Example 123, 3-benzyl-2-cyclopentyl-N-(3-fluoro-5-(1-methyl-1H-pyrazol-4-yl)benzyl)-3H-imidazo[4,5-c]pyridine-4-carboxamide], 69%.
As for `Cn1cc(-c2cc(F)cc(CNC(=O)c3cc(N4CC[C@@](C#N)(C5CC5)C4=O)cc(C4CC4)n3)c2)cn1` [Example 225, 4-((3S)-3-cyano-3-cyclopropyl-2-oxopyrrolidin-1-yl)-6-cyclopropyl-N-(3-fluoro-5-(1-methyl-1H-pyrazol-4-yl)benzyl)pyridine-2-carboxamide], the inhibition at 0.3 µM was 66%.
For the molecule `Cn1cc(-c2ccnc(CNC(=O)c3nccc4nc(C5CCCC5)n(C)c34)n2)cn1` [Example 146, 2-cyclopentyl-3-methyl-N-((4-(1-methyl-1H-pyrazol-4-yl)pyrimidin-2-yl)methyl)-3H-imidazo[4,5-c]pyridine-4-carboxamide], the inhibition at 0.3 µM amounted to 78%.
Consider `CC1(c2nc3ccnc(C(=O)NCc4ccccc4Cl)c3[nH]2)CCCC1` [Example 87, N-(2-chlorobenzyl)-2-(1-methylcyclopentyl)-3H-imidazo[4,5-c]pyridine-4-carboxamide], for which the inhibition at 0.3 µM turned out to be 74%.
As for `Cn1cc(-c2cc(CNC(=O)c3nccc4nc(C5CCCC5)n(C)c34)ccn2)cn1` [Example 136, 2-cyclopentyl-3-methyl-N-((2-(1-methyl-1H-pyrazol-4-yl)pyridin-4-yl)methyl)-3H-imidazo[4,5-c]pyridine-4-carboxamide], the inhibition at 0.3 µM came out at 77%.
Consider `Cc1cc(N2CCC(C3CC3)C2=O)cc(C(=O)NCc2cc(F)cc(-c3cnn(C)c3)c2)n1` (stereo not shown) [Example 234, 4-(3-cyclopropyl-2-oxopyrrolidin-1-yl)-N-(3-fluoro-5-(1-methyl-1H-pyrazol-4-yl)benzyl)-6-methylpyridine-2-carboxamide], for which the inhibition at 0.3 µM is 87%.
With `Cn1cc(-c2cc(F)cc(CNC(=O)c3nccc4nc(C5CCCC5)n(CC5CC5)c34)c2)cn1` [Example 114, 2-cyclopentyl-3-(cyclopropylmethyl)-N-(3-fluoro-5-(1-methyl-1H-pyrazol-4-yl)benzyl)-3H-imidazo[4,5-c]pyridine-4-carboxamide] the figure was 101%.
In the case of `O=C(NCc1cccc(Br)c1)c1nccc2nc(C3CCCC3)[nH]c12` [Example 82, N-(3-bromobenzyl)-2-cyclopentyl-3H-imidazo[4,5-c]pyridine-4-carboxamide], the inhibition at 0.3 µM came out at 98%.
Consider `Cc1cc(N2CC[C@@](C#N)(C3CC3)C2=O)cc(C(=O)NCc2cc(-c3cnn(C)c3)cc(C(F)(F)F)c2)n1` [Example 218, 4-((3S)-3-cyano-3-cyclopropyl-2-oxopyrrolidin-1-yl)-6-methyl-N-(3-(1-methyl-1H-pyrazol-4-yl)-5-(trifluoromethyl)benzyl)pyridine-2-carboxamide], for which the inhibition at 0.3 µM was determined as 83%.
With `Cn1cc(-c2csc(CNC(=O)c3cc(N4CC[C@@](C#N)(C5CC5)C4=O)ccn3)c2)cn1` [Example 157, 4-((3S)-3-cyano-3-cyclopropyl-2-oxopyrrolidin-1-yl)-N-((4-(1-methyl-1H-pyrazol-4-yl)-2-thienyl)methyl)pyridine-2-carboxamide], the inhibition at 0.3 µM is 85%.
On to `Cn1ncc2c(CNC(=O)c3nccc4nc(C5CCCC5)[nH]c34)cccc21` [Example 93, 2-cyclopentyl-N-((1-methyl-1H-indazol-4-yl)methyl)-3H-imidazo[4,5-c]pyridine-4-carboxamide], for which the inhibition at 0.3 µM turned out to be 91%.
With `Cc1cc(N2OCC(C)(C)C2=O)cc(C(=O)NCc2cc(F)cc(-c3cnn(C)c3)c2)n1` [Example 179, 4-(4,4-dimethyl-3-oxo-1,2-oxazolidin-2-yl)-N-(3-fluoro-5-(1-methyl-1H-pyrazol-4-yl)benzyl)-6-methylpyridine-2-carboxamide], the inhibition at 0.3 µM was determined as 93%.
